Laboratory results as given in PubChem BioAssay (NCI).
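Following 48 hours of exposure in 96-well plates, responses at five concentrations were used to interpolate endpoints linearly. TGI: total growth inhibition.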

Tests used:
Assay in all cases: NCI-60 cell line screen, 48 h
A498 renal = tested on: A498 renal
A549 NSCLC = tested on: A549 NSCLC
SK-MEL-28 melanoma = tested on: SK-MEL-28 melanoma
HOP-62 NSCLC = tested on: HOP-62 NSCLC
MDA-N = tested on: MDA-N
MOLT-4 leukemia = tested on: MOLT-4 leukemia
SR leukemia = tested on: SR leukemia
KM12 colon = tested on: KM12 colon
HCC-2998 colon = tested on: HCC-2998 colon
OVCAR-5 ovarian = tested on: OVCAR-5 ovarian
OVCAR-3 ovarian = tested on: OVCAR-3 ovarian
NCI-H226 lung = tested on: NCI-H226 lung
RPMI-8226 leukemia = tested on: RPMI-8226 leukemia
UACC-62 melanoma = tested on: UACC-62 melanoma
NCI-H460 lung = tested on: NCI-H460 lung
SF-295 CNS = tested on: SF-295 CNS
IGROV1 ovarian = tested on: IGROV1 ovarian
DU-145 prostate = tested on: DU-145 prostate
U251 CNS = tested on: U251 CNS
SNB-75 CNS = tested on: SNB-75 CNS
SF-539 CNS = tested on: SF-539 CNS
COLO 205 colon = tested on: COLO 205 colon
NCI/ADR-RES ovarian = tested on: NCI/ADR-RES ovarian
786-0 renal = tested on: 786-0 renal
SF-268 CNS = tested on: SF-268 CNS
SK-MEL-5 melanoma = tested on: SK-MEL-5 melanoma
T-47D breast = tested on: T-47D breast
UACC-257 melanoma = tested on: UACC-257 melanoma
BT-549 breast = tested on: BT-549 breast
EKVX NSCLC = tested on: EKVX NSCLC
SK-MEL-2 melanoma = tested on: SK-MEL-2 melanoma
NCI-H522 lung = tested on: NCI-H522 lung
OVCAR-4 ovarian = tested on: OVCAR-4 ovarian
HCT-116 colon = tested on: HCT-116 colon
PC-3 prostate = tested on: PC-3 prostate
MDA-MB-231 breast = tested on: MDA-MB-231 breast
MALME-3M melanoma = tested on: MALME-3M melanoma
LOX IMVI melanoma = tested on: LOX IMVI melanoma
SK-OV-3 ovarian = tested on: SK-OV-3 ovarian
ACHN renal = tested on: ACHN renal
HCT-15 colon = tested on: HCT-15 colon
TK-10 renal = tested on: TK-10 renal
SNB-19 CNS = tested on: SNB-19 CNS
UO-31 renal = tested on: UO-31 renal
NCI-H23 lung = tested on: NCI-H23 lung
K-562 leukemia = tested on: K-562 leukemia
RXF 393 renal = tested on: RXF 393 renal
OVCAR-8 ovarian = tested on: OVCAR-8 ovarian
CAKI-1 renal = tested on: CAKI-1 renal
CCRF-CEM leukemia = tested on: CCRF-CEM leukemia
MDA-MB-435 = tested on: MDA-MB-435
MCF7 breast = tested on: MCF7 breast
SW-620 colon = tested on: SW-620 colon
M14 melanoma = tested on: M14 melanoma
HS 578T breast = tested on: HS 578T breast
HT29 colon = tested on: HT29 colon
HL-60(TB) leukemia = tested on: HL-60(TB) leukemia
HOP-92 NSCLC = tested on: HOP-92 NSCLC
SN12C renal = tested on: SN12C renal

SMILES: N/C(=N/n1c(=S)[nH]c2ccccc2c1=O)Nn1c(=S)[nH]c2ccccc2c1=O
- TGI (A498 renal): > 100 µM
- TGI (A549 NSCLC): > 100 µM
- TGI (SK-MEL-28 melanoma): 72.6 µM
- TGI (HOP-62 NSCLC): 93.1 µM
- TGI (MDA-N): 85.4 µM
- TGI (MOLT-4 leukemia): 31 µM
- TGI (SR leukemia): 52 µM
- TGI (KM12 colon): > 100 µM
- TGI (HCC-2998 colon): > 100 µM
- TGI (OVCAR-5 ovarian): > 100 µM
- TGI (OVCAR-3 ovarian): > 100 µM
- TGI (NCI-H226 lung): 79 µM
- TGI (RPMI-8226 leukemia): 57.5 µM
- TGI (UACC-62 melanoma): > 100 µM
- TGI (NCI-H460 lung): > 100 µM
- TGI (SF-295 CNS): > 100 µM
- TGI (IGROV1 ovarian): > 100 µM
- TGI (DU-145 prostate): > 100 µM
- TGI (U251 CNS): 72.3 µM
- TGI (SNB-75 CNS): > 100 µM
- TGI (SF-539 CNS): 56.2 µM
- TGI (COLO 205 colon): 77.6 µM
- TGI (NCI/ADR-RES ovarian): > 100 µM
- TGI (786-0 renal): 34.2 µM
- TGI (SF-268 CNS): 56.8 µM
- TGI (SK-MEL-5 melanoma): > 100 µM
- TGI (T-47D breast): 66.3 µM
- TGI (UACC-257 melanoma): > 100 µM
- TGI (BT-549 breast): 55.4 µM
- TGI (EKVX NSCLC): > 100 µM
- TGI (SK-MEL-2 melanoma): > 100 µM
- TGI (NCI-H522 lung): 30 µM
- TGI (OVCAR-4 ovarian): > 100 µM
- TGI (HCT-116 colon): 30.4 µM
- TGI (PC-3 prostate): > 100 µM
- TGI (MDA-MB-231 breast): > 100 µM
- TGI (MALME-3M melanoma): 45.6 µM
- TGI (LOX IMVI melanoma): 46 µM
- TGI (SK-OV-3 ovarian): > 100 µM
- TGI (ACHN renal): > 100 µM
- TGI (HCT-15 colon): 55.5 µM
- TGI (TK-10 renal): > 100 µM
- TGI (SNB-19 CNS): > 100 µM
- TGI (UO-31 renal): 27.3 µM
- TGI (NCI-H23 lung): 62.4 µM
- TGI (K-562 leukemia): 83.6 µM
- TGI (RXF 393 renal): > 100 µM
- TGI (OVCAR-8 ovarian): > 100 µM
- TGI (CAKI-1 renal): 26.3 µM
- TGI (CCRF-CEM leukemia): 48.2 µM
- TGI (MDA-MB-435): > 100 µM
- TGI (MCF7 breast): > 100 µM
- TGI (SW-620 colon): 38.6 µM
- TGI (M14 melanoma): 23.8 µM

SMILES: CN(C)Cc1cc(N=Nc2ccccc2)cc(CN(C)C)c1O
- TGI (HS 578T breast): > 100 µM
- TGI (A498 renal): > 100 µM
- TGI (A549 NSCLC): > 100 µM
- TGI (SK-MEL-28 melanoma): > 100 µM
- TGI (HOP-62 NSCLC): > 100 µM
- TGI (MDA-N): > 100 µM
- TGI (MOLT-4 leukemia): > 100 µM
- TGI (SR leukemia): > 100 µM
- TGI (KM12 colon): > 100 µM
- TGI (HCC-2998 colon): > 100 µM
- TGI (OVCAR-5 ovarian): > 100 µM
- TGI (OVCAR-3 ovarian): > 100 µM
- TGI (NCI-H226 lung): > 100 µM
- TGI (RPMI-8226 leukemia): > 100 µM
- TGI (UACC-62 melanoma): > 100 µM
- TGI (NCI-H460 lung): > 100 µM
- TGI (HT29 colon): > 100 µM
- TGI (SF-295 CNS): > 100 µM
- TGI (IGROV1 ovarian): > 100 µM
- TGI (DU-145 prostate): > 100 µM
- TGI (U251 CNS): > 100 µM
- TGI (SNB-75 CNS): > 100 µM
- TGI (SF-539 CNS): > 100 µM
- TGI (COLO 205 colon): > 100 µM
- TGI (NCI/ADR-RES ovarian): > 100 µM
- TGI (786-0 renal): > 100 µM
- TGI (SF-268 CNS): > 100 µM
- TGI (HL-60(TB) leukemia): 66.9 µM
- TGI (SK-MEL-5 melanoma): > 100 µM
- TGI (T-47D breast): > 100 µM
- TGI (UACC-257 melanoma): > 100 µM
- TGI (BT-549 breast): > 100 µM
- TGI (HOP-92 NSCLC): > 100 µM
- TGI (EKVX NSCLC): > 100 µM
- TGI (SK-MEL-2 melanoma): > 100 µM
- TGI (NCI-H522 lung): > 100 µM
- TGI (OVCAR-4 ovarian): > 100 µM
- TGI (HCT-116 colon): > 100 µM
- TGI (PC-3 prostate): > 100 µM
- TGI (MDA-MB-231 breast): > 100 µM
- TGI (MALME-3M melanoma): > 100 µM
- TGI (LOX IMVI melanoma): > 100 µM
- TGI (SN12C renal): > 100 µM
- TGI (SK-OV-3 ovarian): > 100 µM
- TGI (ACHN renal): > 100 µM
- TGI (HCT-15 colon): > 100 µM
- TGI (TK-10 renal): > 100 µM
- TGI (SNB-19 CNS): > 100 µM
- TGI (UO-31 renal): > 100 µM
- TGI (NCI-H23 lung): > 100 µM
- TGI (K-562 leukemia): > 100 µM
- TGI (RXF 393 renal): > 100 µM
- TGI (OVCAR-8 ovarian): > 100 µM
- TGI (CAKI-1 renal): > 100 µM
- TGI (CCRF-CEM leukemia): 94.3 µM
- TGI (MDA-MB-435): > 100 µM
- TGI (SW-620 colon): > 100 µM
- TGI (M14 melanoma): > 100 µM
